Measurements reported in patent publication US20230250096A1, “SUBSTITUTED PHENYL-1H-PYRROLO[2,3-c] PYRIDINE DERIVATIVES” (Janssen Pharmaceutica NV, priority 2021, published 2023).
Where two headings read alike, the source gives them in different places.

What was measured:
Type in all cases: cell-based, human
MOLM14 cells = experiment: Proliferation assay (spheroid confluence, 8 days), MOLM14; conditions: read-out: spheroid assay_MOLM14 IC50
How it was run: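 Cells grown as spheroids in ultra-low attachment round-bottom wells (200 MOLM14 or OCI-AML3, 300 KO-52 per well) with compound dilutions at 0.3% DMSO, 8 days, 37° C. Confluence from live-cell imaging at day 8; % effect normalized to DMSO and high-dose reference/staurosporin, absolute IC50 from variable-slope fit.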

KO-52 cells = experiment: Proliferation assay (spheroid confluence, 8 days), KO-52 control cell line; conditions: read-out: spheroid assay_KO-52 IC50
Method: The anti-proliferative effect of menin/MLL protein/protein interaction inhibitor test compounds was assessed in human leukemia cell lines. The cell line MOLM14 harbors a MLL translocation and expresses the MLL fusion protein MLL-AF9, respectively, as well as the wildtype protein from the second allele. OCI-AML3 cells that carry the NPM1c gene mutation were also tested. […] KO-52 was used as a control cell line containing two MLL (KMT2A) wildtype alleles in order to exclude compounds that display general cytotoxic effects.
MOLM14 cells were cultured in RPMI-1640 (Sigma Aldrich) supplemented with 10% heat-inactivated fetal bovine serum (HyClone), 2 mM L-glutamine (Sigma Aldrich) and 50 μg/ml gentamycin (Gibco). KO-52 and OCI-AML3 cell lines were propagated in alpha-MEM (Sigma Aldrich) supplemented with 20% heat-inactivated fetal bovine serum (HyClone), 2 mM L-glutamine (Sigma Aldrich) and 50 μg/ml gentamycin (Gibco).
In order to assess the anti-proliferative effects, 200 MOLM14 cells, 200 OCI-AML3 cells or 300 KO-52 cells were seeded in 200 μl media per well in 96-well round bottom, ultra-low attachment plates (Costar, catalogue number 7007). Cell seeding numbers were chosen based on growth curves to ensure linear growth throughout the experiment. Test compounds were added at different concentrations and the DMSO content was normalized to 0.3%. Cells were incubated for 8 days at 37° C. and 5% CO2. Spheroid like growth was measured in real-time by live-cell imaging (IncuCyteZOOM, Essenbio, 4×objective) acquiring images at day 8. Confluence (%) as a measure of spheroid size was determined using an integrated analysis tool.
In order to determine the effect of the test compounds over time, the confluence in each well as a measure of spheroid size, was calculated. Confluence of the highest dose of a reference compound was used as baseline for the LC (Low control) and the confluence of DMSO treated cells was used as 0% cytotoxicity (High Control, HC).
Absolute IC50 values were calculated as percent change in confluence as follows:
LC=Low Control: cells treated with e.g. 1 μM of the cytotoxic agent staurosporin, or e.g. cells treated with a high concentration of an alternative reference compound
HC=High Control: Mean confluence (%) (DMSO treated cells)
% Effect=100−(100*(Sample−LC)/(HC−LC))
GraphPad Prism (version 7.00) was used to calculate the IC50. Dose-response equation was used for the plot of % Effect vs Log10 compound concentration with a variable slope and fixing the maximum to 100% and the minimum to 0%.

MEIS1 mRNA expression = MEIS1 mRNA expression assay (Quantigene Singleplex) in MOLM14 cells; conditions: 48 hours incubation
How it was run: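 MOLM14 cells, 3,750/well, exposed to increasing compound concentrations for 48 h. MEIS1 mRNA measured by QuantiGene Singleplex branched-DNA hybridization (lysis 45 min, hybridization 18–22 h, both 55 °C), normalized to RPL28. IC50 fitted to background-corrected fold change versus DMSO.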

Compound	IC50 (MOLM14 cells; Homo sapiens, MOLM-14, MOLM14)	IC50 (KO-52 cells; Homo sapiens)	IC50 (MEIS1 mRNA expression; Homo sapiens, MOLM-14, 48 h)	IC50 (MOLM14 cells; MOLM14)	IC50 (KO-52 cells)	IC50 (MEIS1 mRNA expression)
CC(=O)N1CCN(CCCC(C(C)C)N2CC[C@@H](Cc3cn(-c4ccc(F)cc4C(=O)N(C)C(C)C)c4cncc(C)c34)C2)CC1 (mixture of isomers) [Compound 8]	11 nM	2400 nM	23 nM	–	–	–
CC(=O)N1CCN(CCCC(C(C)C)N2CC[C@H](Cc3cn(-c4ccc(F)cc4C(=O)N(C)C(C)C)c4cncc(C)c34)C2)CC1 (mixture of isomers) [Compound 9]	13 nM	5600 nM	23 nM	–	–	–
CC(=O)N1C[C@@H]2CN([C@H]3C[C@@H](C(C(C)C)N4CC[C@H](Cc5cn(-c6ccc(F)cc6C(=O)N(C)C(C)C)c6cncc(C)c56)C4)C3)C[C@H]2C1 (mixture of isomers) [Compound 21]	< 1.8 nM	2000 nM	< 2.3 nM	–	–	–
CCC([C@H]1C[C@@H](N2CCN(C(C)=O)CC2)C1)N1CC[C@@H](Cc2cn(-c3ccc(F)cc3C(=O)N(C)C(C)C)c3cncc(C)c23)C1 (mixture of isomers) [Compound 24]	13 nM	8500 nM	71 nM	–	–	–
Cc1cncc2c1c(C[C@@H]1CCN(CC3CCOCC3)C1)cn2-c1ccc(F)cc1S(=N)(=O)C(C)C (mixture of isomers) [Compound 78]	111 nM	8400 nM	327 nM	–	–	–
Cc1cncc2c1c(C[C@@H]1CCN(CC3CCNC(=O)CC3)C1)cn2-c1ccc(F)cc1C(=O)N(C)C(C)C (mixture of isomers) [Compound 169]	16 nM	10000 nM	71 nM	–	–	–
Cc1cncc2c1c(C[C@@H]1CCN(CC3CCNC(=O)C3)C1)cn2-c1ccc(F)cc1C(=O)N(C)C(C)C (mixture of isomers) [Compound 212]	305 nM	> 15000 nM	322 nM	–	–	–
COCCN(C)CCCC(C(C)C)N1CC[C@H](Cc2cn(-c3ccc(F)cc3C(=O)N(C)C(C)C)c3cncc(C)c23)C1 (single isomer, unassigned) [Compound 2]	1 nM	> 15000 nM	3 nM	–	–	–
COCCN(C)CCC[C@H](C(C)C)N1CC[C@H](Cc2cn(-c3ccc(F)cc3C(=O)N(C)C(C)C)c3cncc(Cl)c23)C1 (single isomer, unassigned) [Compound 4a]	132 nM	7800 nM	247 nM	–	–	–
COCCN(C)CCC[C@@H](C(C)C)N1CC[C@H](Cc2cn(-c3ccc(F)cc3C(=O)N(C)C(C)C)c3cncc(Cl)c23)C1 (single isomer, unassigned) [Compound 4b]	3 nM	500 nM	6 nM	–	–	–
CC(=O)N1CCN(CCCC(C(C)C)N2CCC(Cc3cn(-c4ccc(F)cc4C(=O)N(C)C(C)C)c4cncc(C)c34)C2)CC1 (single isomer, unassigned) [Compound 9a]	2 nM	600 nM	6 nM	–	–	–
CC(=O)N1C[C@@H]2CN(CCC[C@H](C(C)C)N3CC[C@H](Cc4cn(-c5ccc(F)cc5C(=O)N(C)C(C)C)c5cncc(Cl)c45)C3)C[C@H]2C1 (single isomer, unassigned) [Compound 19a]	3 nM	> 15000 nM	< 3.3 nM	–	–	–
CN=S(=O)(c1cc(F)ccc1-n1cc(CC2CCN(CC3CCOCC3)C2)c2c(C)cncc21)C(C)C (single isomer, unassigned) [Compound 77b]	–	–	–	81 nM	1900 nM	132 nM
CN=S(=O)(c1cc(F)ccc1-n1cc(CC2CCN(CC3CCOCC3)C2)c2c(C)cncc21)C(C)C (single isomer, unassigned) [Compound 77d]	–	–	–	197 nM	> 15000 nM	~260 nM
CC(=O)N1CCC(N2CC[C@H](Cc3cn(-c4ccc(F)cc4C(=O)N(C)C(C)C)c4cncc(C)c34)C2)CC1 (single isomer, unassigned) [Compound 81]	58 nM	4000 nM	–	–	–	77 nM
